How the values were obtained:
[1] = test system: murine breast tumors (Her2-dependent, BH archive); assay: murine breast tumor response to tivozanib (BH archive tumors transplanted subcutaneously in NCr nude mice); type: in vivo, mouse
From the text: A library of more than 100 murine breast tumors (BH archive) was used to identify tumors that are sensitive to tivozanib (responders) and tumors that are resistant to tivozanib (non-responders). The BH archive was established by in vivo propagation and cryopreservation of primary tumor material from more than 100 spontaneous murine breast tumors derived from engineered chimeric mice that develop Her2-dependent, inducible spontaneous breast tumors. The mice were produced essentially as follows.
Tumor cells were isolated by physical disruption of the tumors using cell strainers. Typically 1×10^5 cells were mixed with matrigel (50:50 volume) and injected subcutaneously into female NCr nu/nu mice on upper dorsal region between the shoulder blades. When these tumors grew to approximately 500 mm^3, which typically required 2 to 4 weeks, they were collected for further propagation, drug response testing, and analysis. Analysis included microarray profiling, general histopathology, and IHC (CD31 for tumor vasculature, Ki67 for tumor cell proliferation).
Evaluation of tumor response to tivozanib was performed essentially as follows. Subcutaneously transplanted tumors were established by injecting physically disrupted tumor cells (mixed with Matrigel) into 7 week-old female NCr nude mice. When the tumors reached approximately 200-400 mm^3, 30 tumor-bearing mice were randomized into three groups. Group 1 received vehicle. Group 2 received tivozanib at 5 mg/kg daily by oral gavage. Group 3 received tivozanib at 20 mg/kg daily by oral gavage. Tumors were measured twice per week by a caliper, and tumor volume was calculated. At the end of the treatment, tumors were collected for histopathological analysis and IHC analysis.
Based on tumor growth inhibition and typical histopathological and IHC (CD31) characteristics for angiogenesis inhibition, responders and non-responders were identified. […] The variation in response was expected, because the mouse model tumors had arisen spontaneously, and therefore they were expected to contain differing sets of random mutations that had led to tumorigenesis, including tumor angiogenesis. Such variation in response was desirable, because it was similar to the variation in naturally occurring human tumors, and thus enabled identification of tivozanib-responsive tumors and tivozanib-resistant tumors for use in identifying the molecular signature or tivozanib responsiveness.

VEGF receptor 3 = VEGF receptor 3 (Homo sapiens, UniProt P35916); settings: Nakamura et al., 2006; cited from earlier work
preclinical models = settings: Nakamura et al., 2006; cited from earlier work
[2] = 272-patient Phase 2 clinical trial; Bhargava et al., 2009; cited from earlier work
[3] = of 26 individual murine breast tumors, FIG. 1

VEGF receptor 3, sequence (P35916 25-1363): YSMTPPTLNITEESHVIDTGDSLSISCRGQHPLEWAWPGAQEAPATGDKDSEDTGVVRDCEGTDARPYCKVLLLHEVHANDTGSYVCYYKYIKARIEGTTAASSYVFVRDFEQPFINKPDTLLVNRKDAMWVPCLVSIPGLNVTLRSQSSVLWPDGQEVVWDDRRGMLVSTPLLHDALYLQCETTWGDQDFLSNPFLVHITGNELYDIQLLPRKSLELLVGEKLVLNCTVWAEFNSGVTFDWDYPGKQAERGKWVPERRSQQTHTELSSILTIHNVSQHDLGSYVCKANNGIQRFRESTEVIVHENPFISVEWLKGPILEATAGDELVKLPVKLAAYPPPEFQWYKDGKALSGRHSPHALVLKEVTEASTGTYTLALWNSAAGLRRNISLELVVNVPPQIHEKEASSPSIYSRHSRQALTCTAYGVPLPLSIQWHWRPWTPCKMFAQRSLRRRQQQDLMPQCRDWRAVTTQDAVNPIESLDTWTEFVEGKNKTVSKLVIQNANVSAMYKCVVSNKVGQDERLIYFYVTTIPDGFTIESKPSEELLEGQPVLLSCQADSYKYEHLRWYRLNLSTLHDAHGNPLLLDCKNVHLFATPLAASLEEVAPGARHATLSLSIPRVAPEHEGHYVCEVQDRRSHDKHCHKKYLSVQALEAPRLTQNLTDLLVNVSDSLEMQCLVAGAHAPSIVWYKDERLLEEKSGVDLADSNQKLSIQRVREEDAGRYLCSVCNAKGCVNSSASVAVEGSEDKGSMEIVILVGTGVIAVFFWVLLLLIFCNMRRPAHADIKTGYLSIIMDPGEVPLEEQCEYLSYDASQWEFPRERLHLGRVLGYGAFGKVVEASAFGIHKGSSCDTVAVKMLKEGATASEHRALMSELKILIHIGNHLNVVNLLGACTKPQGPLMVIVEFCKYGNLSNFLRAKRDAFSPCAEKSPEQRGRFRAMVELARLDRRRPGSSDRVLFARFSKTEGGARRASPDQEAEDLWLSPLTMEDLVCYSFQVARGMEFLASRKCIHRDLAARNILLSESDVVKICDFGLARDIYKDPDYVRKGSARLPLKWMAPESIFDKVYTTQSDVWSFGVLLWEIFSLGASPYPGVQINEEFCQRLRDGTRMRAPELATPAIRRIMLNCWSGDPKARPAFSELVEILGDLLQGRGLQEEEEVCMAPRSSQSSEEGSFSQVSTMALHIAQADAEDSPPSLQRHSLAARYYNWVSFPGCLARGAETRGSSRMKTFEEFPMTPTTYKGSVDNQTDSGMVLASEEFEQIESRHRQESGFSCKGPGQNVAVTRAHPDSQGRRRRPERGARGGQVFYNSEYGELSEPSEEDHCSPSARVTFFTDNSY

## COc1cc2nccc(Oc3ccc(NC(=O)Nc4cc(C)on4)c(Cl)c3)c2cc1OC [tivozanib, N-{2-chloro-4-[(6,7-dimethoxy-4-quinolyl)oxy]-phenyl}-N′-(5-methyl-3-isoxazolyl)urea]
[1]; 5 or 20 mg/kg daily by oral gavage
  variation in response among tumors: significant tumor-to-tumor variation in response
[1]; [3]
  number of tumors classified as non-responsive (tivozanib resistant tumors): 18
  number of tumors classified as responsive (tivozanib sensitive tumors): eight
[1]; responder tumors, 5 mg/kg daily by oral gavage
  tumor progression by caliper measurement: no tumor progression
[1]; responder tumors, 5 mg/kg daily by oral gavage, except the peripheries
  tumor killing (by histology): close to complete tumor killing
VEGF receptor 3
  inhibitory activity: picomolar
Preclinical models
  antitumor activity: exhibits antitumor activity
[2]
  interim results of clinical trial: positive interim results
